Consider eight molecules from US7709511B2, “Benzothiazolone derivatives” (AstraZeneca AB, priority 2005, dated 2010).

Structures can show the parent of a compound that is named as a salt.

Assay [1] addresses T1, recombinant human α1D receptor (Homo sapiens, UniProt P25100).
T1 construct: made in house; host or cells: HEK293 cells (membranes)
T1 sequence (P25100 1-572): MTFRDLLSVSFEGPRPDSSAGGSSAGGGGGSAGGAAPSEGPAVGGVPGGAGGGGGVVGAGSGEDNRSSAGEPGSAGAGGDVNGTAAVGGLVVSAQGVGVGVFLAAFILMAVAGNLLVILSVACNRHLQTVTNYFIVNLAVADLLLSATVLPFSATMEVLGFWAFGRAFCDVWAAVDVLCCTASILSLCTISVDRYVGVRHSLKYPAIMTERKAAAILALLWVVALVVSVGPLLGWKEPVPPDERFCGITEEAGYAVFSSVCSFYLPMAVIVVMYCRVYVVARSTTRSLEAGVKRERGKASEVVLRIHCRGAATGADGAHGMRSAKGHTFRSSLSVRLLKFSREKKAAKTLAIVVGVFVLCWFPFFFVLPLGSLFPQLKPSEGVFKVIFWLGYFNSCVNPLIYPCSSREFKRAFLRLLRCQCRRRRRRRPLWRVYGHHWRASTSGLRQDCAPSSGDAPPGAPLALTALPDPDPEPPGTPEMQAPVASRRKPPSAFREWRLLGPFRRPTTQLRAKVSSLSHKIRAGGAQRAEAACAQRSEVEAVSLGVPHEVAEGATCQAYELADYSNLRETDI
In words: Adrenergic α1D selectivity assay, inhibition of [3H]-prazosin binding to membranes. The note with it: HEK293 membranes, [3H]-prazosin 0.3 nM; read-out: α1 bind pIC50 (converted). On the procedure:
Membranes were prepared from human embryonic kidney 293 (HEK293) cells expressing recombinant human α1D receptor. These were diluted in Assay Buffer (50 mM HEPES, 1 mM EDTA, 0.1% gelatin, pH 7.4) to provide a final concentration of membranes that gave a clear window between maximum and minimum specific binding.
Assays were performed in U-bottomed 96-well polypropylene plates. 10 μL [^3H]-prazosin (0.3 nM final concentration) and 10 μL of test compound (10× final concentration) were added to each test well. For each assay plate 8 replicates were obtained for [^3H]-prazosin binding in the presence of 10 μL vehicle (10% (v/v) DMSO in Assay Buffer; defining maximum binding) or 10 μL BMY7378 (10 μM final concentration; defining non-specific binding (NSB)). Membranes were then added to achieve a final volume of 100 μL. The plates were incubated for 2 hours at room temperature and then filtered onto PEI coated GF/B filter plates, pre-soaked for 1 hour in Assay Buffer, using a 96-well plate Tomtec cell harvester. Five washes with 250 μL wash buffer (50 mM HEPES, 1 mM EDTA, pH 7.4) were performed at 4° C. to remove unbound radioactivity. The plates were dried then sealed from underneath using Packard plate sealers and MicroScint-O (50 μL) was added to each well. The plates were sealed (TopSeal A) and filter-bound radioactivity was measured with a scintillation counter (TopCount, Packard BioScience) using a 3-minute counting protocol.
Total specific binding (B0) was determined by subtracting the mean NSB from the mean maximum binding. NSB values were also subtracted from values from all other wells. […] Data was fitted to a four parameter logistic equation to determine the compound potency, which was expressed as pIC50 (negative log molar concentration inducing 50% inhibition of [^3H]-prazosin binding).

For assay [2], the target named is T2, Adrenergic β2 (Homo sapiens, UniProt P07550).
T2 construct: endogenous in cells; host or cells: H292 cells
T2 sequence (P07550 whole entry): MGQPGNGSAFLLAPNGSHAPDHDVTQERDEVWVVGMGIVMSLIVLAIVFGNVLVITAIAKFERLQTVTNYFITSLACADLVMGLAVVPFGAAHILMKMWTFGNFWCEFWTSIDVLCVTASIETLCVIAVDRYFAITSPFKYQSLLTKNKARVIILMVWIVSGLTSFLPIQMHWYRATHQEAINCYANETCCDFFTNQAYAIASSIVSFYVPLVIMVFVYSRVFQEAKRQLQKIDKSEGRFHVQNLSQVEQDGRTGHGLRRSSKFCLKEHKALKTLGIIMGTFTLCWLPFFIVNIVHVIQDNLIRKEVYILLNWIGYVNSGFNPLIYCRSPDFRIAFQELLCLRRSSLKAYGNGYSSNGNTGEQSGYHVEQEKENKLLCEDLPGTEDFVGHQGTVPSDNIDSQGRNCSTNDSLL
In words: Alternative adrenergic β2 mediated cAMP production in H292 cells (AlphaScreen cAMP detection). Conditions: for EC50: cAMP, test compounds incubated 60 minutes at room temperature, 300 μM rolipram, read-out: β2 pEC50 (converted); for β2 Int Act: fraction relative to the maximum activity determined for formoterol, 60 minutes incubation. It is filed as cell-based. How it is done:
Alternative Adrenergic β2 Mediated cAMP Production Cell Preparation
H292 cells were grown in 225 cm2 flasks incubator at 37° C., 5% CO2 in RPMI medium containing, 10% (v/v) FBS (foetal bovine serum) and 2 mM L-glutamine.
Adherent H292 cells were removed from tissue culture flasks by treatment with Accutase™ cell detachment solution for 15 minutes. Flasks were incubated for 15 minutes in a humidified incubator at 37° C., 5% CO2. Detached cells were re-suspended in RPMI media (containing 10% (v/v) FBS and 2 mM L-glutamine) at 0.05×10^6 cells per mL. 5000 cells in 100 μL were added to each well of a tissue-culture-treated 96-well plate and the cells incubated overnight in a humidified incubator at 37° C., 5% CO2. The culture media was removed and cells were washed twice with 100 μL assay buffer and replaced with 50 μL assay buffer (HBSS solution containing 10 mM HEPES pH7.4 and 5 mM glucose). Cells were rested at room temperature for 20 minutes after which time 25 μL of rolipram (1.2 mM made up in assay buffer containing 2.4% (v/v) dimethylsulphoxide) was added. Cells were incubated with rolipram for 10 minutes after which time test compounds were added and the cells were incubated for 60 minutes at room temperature. The final rolipram concentration in the assay was 300 μM and final vehicle concentration was 1.6% (v/v) dimethylsulphoxide. The reaction was stopped by removing supernatants, washing once with 100 μL assay buffer and replacing with 50 μL lysis buffer. The cell monolayer was frozen at −80° C. for 30 minutes (or overnight).
AlphaScreen™ cAMP Detection
The concentration of cAMP (cyclic adenosine monophosphate) in the cell lysate was determined using AlphaScreen™ methodology. The frozen cell plate was thawed for 20 minutes on a plate shaker then 10 μL of the cell lysate was transferred to a 96-well white plate. 40 μL of mixed AlphaScreen™ detection beads pre-incubated with biotinylated cAMP, was added to each well and the plate incubated at room temperature for 10 hours in the dark. The AlphaScreen™ signal was measured using an EnVision spectrophotometer (Perkin-Elmer Inc.) with the recommended manufacturer's settings. cAMP concentrations were determined by reference to a calibration curve determined in the same experiment using standard cAMP concentrations. Concentration response curves for agonists were constructed and data was fitted to a four parameter logistic equation to determine both the pEC50 and Intrinsic Activity. Intrinsic Activity was expressed as a fraction relative to the maximum activity determined for formoterol in each experiment.

For assay [3], the target named is T3, recombinant human Dopamine Subtype D2s receptors (Homo sapiens, UniProt P14416).
T3 construct: purchased Perkin Elmer
T3 sequence (P14416 1-414 isoform P14416-2): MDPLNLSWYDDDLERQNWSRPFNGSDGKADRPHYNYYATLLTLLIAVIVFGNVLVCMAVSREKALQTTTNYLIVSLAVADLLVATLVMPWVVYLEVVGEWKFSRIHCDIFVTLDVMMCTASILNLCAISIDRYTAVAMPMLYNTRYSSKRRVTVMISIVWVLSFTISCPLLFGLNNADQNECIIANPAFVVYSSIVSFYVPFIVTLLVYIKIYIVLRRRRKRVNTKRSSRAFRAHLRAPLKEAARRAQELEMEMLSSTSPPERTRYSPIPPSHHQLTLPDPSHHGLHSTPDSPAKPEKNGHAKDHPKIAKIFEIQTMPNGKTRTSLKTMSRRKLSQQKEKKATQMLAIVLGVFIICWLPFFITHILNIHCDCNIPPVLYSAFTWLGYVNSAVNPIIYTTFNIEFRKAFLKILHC
Briefly: Dopamine D2 selectivity assay, inhibition of [3H]-spiperone binding to membranes. The note with it: [3H]-spiperone 0.16 nM; read-out: D2 bind pIC50 (converted). On the procedure:
Membranes containing recombinant human Dopamine Subtype D2s receptors were obtained from Perkin Elmer. These were diluted in Assay Buffer (50 mM HEPES, 1 mM EDTA, 120 mM NaCl, 0.1% gelatin, pH 7.4) to provide a final concentration of membranes that gave a clear window between maximum and minimum specific binding.
Assays were performed in U-bottomed 96-well polypropylene plates. 30 μL [^3H]-spiperone (0.16 nM final concentration) and 30 μL of test compound (10× final concentration) were added to each test well. For each assay plate 8 replicates were obtained for [^3H]-spiperone binding in the presence of 30 μL vehicle (10% (v/v) DMSO in Assay Buffer; defining maximum binding) or 30 μL Haloperidol (10 μM final concentration; defining non-specific binding (NSB)). Membranes were then added to achieve a final volume of 300 μL. The plates were incubated for 2 hours at room temperature and then filtered onto PEI coated GF/B filter plates, pre-soaked for 1 hour in Assay Buffer, using a 96-well plate Tomtec cell harvester. Five washes with 250 μL wash buffer (50 mM HEPES, 1 mM EDTA, 120 mM NaCl, pH 7.4) were performed at 4° C. to remove unbound radioactivity. The plates were dried then sealed from underneath using Packard plate sealers and MicroScint-O (50 μL) was added to each well. The plates were sealed (TopSeal A) and filter-bound radioactivity was measured with a scintillation counter (TopCount, Packard BioScience) using a 3-minute counting protocol.
Total specific binding (B0) was determined by subtracting the mean NSB from the mean maximum binding. NSB values were also subtracted from values from all other wells. […] Data was fitted to a four parameter logistic equation to determine the compound potency, which was expressed as pIC50 (negative log molar concentration inducing 50% inhibition of [^3H]-spiperone binding).

For the molecule `CCN(CC)CCN(CCNCCc1ccc(O)c2[nH]c(=O)sc12)C(=O)CCOCCc1ccccc1C(F)(F)F` [Example 17, N-[2-(Diethylamino)ethyl]-N-(2-{[2-(4-hydroxy-2-oxo-2,3-dihydro-1,3-benzothiazol-7-yl)ethyl]amino}ethyl)-3-{2-[2-(trifluoromethyl)phenyl]ethoxy}propanamide ditrifluoroacetate], the IC50 in assay [1] was 794 nM. Further, in assay [2], the EC50 was 25.1 nM and the “β2 Int Act” value worked out at 0.9.

With `CCN(CC)CCN(CCNCCc1ccc(O)c2[nH]c(=O)sc12)C(=O)CCOCCc1cccc(Cl)c1` [Example 18, 3-[2-(3-Chlorophenyl)ethoxy]-N-[2-(diethylamino)ethyl]-N-(2-{[2-(4-hydroxy-2-oxo-2,3-dihydro-1,3-benzothiazol-7-yl)ethyl]amino}ethyl)propanamide ditrifluoroacetate], in assay [3], the IC50 is 2510 nM. For the same molecule, the IC50 in assay [1] was 794 nM. In addition, in assay [2], the EC50 was 5.01 nM and the “β2 Int Act” value worked out at 0.7.

Regarding `CCN(CC)CCN(CCNCCc1ccc(O)c2[nH]c(=O)sc12)C(=O)CCOCCc1cccc(Cl)c1Cl` [Example 20, 3-[2-(2,3-Dichlorophenyl)ethoxy]-N-(2-diethylaminoethyl)-N-(2-{[2-(4-hydroxy-2-oxo-2,3-dihydro-1,3-benzothiazol-7-yl)ethyl]amino}ethyl)propanamide ditrifluoroacetate], the IC50 in assay [3] is 1580 nM. Moreover, in assay [1], the IC50 was 398 nM. Besides, in assay [2], the EC50 was 10 nM and the “β2 Int Act” value is on record as 0.6.

Turning to `CCN(CC)CCN(CCNCCc1ccc(O)c2[nH]c(=O)sc12)C(=O)CCOCCc1cccc(F)c1` [Example 22, N-(2-Diethylaminoethyl)-3-[2-(3-fluorophenyl)ethoxy]-N-{2-[2-(4-hydroxy-2-oxo-2,3-dihydro-1,3-benzothiazol-7-yl)ethylamino]ethyl}propanamide dihydrobromide], the values for the IC50 in assay [3] and in assay [1] were 5010 nM and 1260 nM, respectively. Also, in assay [2], the EC50 was 7.94 nM. Also, the “β2 Int Act” value in assay [2] was determined as 0.8.

For the molecule `CCN(CC)CCN(CCNCCc1ccc(O)c2[nH]c(=O)sc12)C(=O)CCOCCc1ccc(Cl)c(Cl)c1` [Example 27, 3-[2-(3,4-Dichlorophenyl)ethoxy]-N-(2-diethylaminoethyl)-N-{2-[2-(4-hydroxy-2-oxo-2,3-dihydro-1,3-benzothiazol-7-yl)ethylamino]ethyl}propanamide dihydrobromide], in assay [3], the IC50 is 3160 nM. Further, in assay [1], the IC50 is 1000 nM. Moreover, in assay [2], the EC50 was 31.6 nM and the “β2 Int Act” value is reported as 0.6.

For `CCN(CC)CCN(CCNCCc1ccc(O)c2[nH]c(=O)sc12)C(=O)CCOCCc1cccc(O)c1` [Example 29, N-(2-Diethylaminoethyl)-N-{2-[2-(4-hydroxy-2-oxo-2,3-dihydro-1,3-benzothiazol-7-yl)ethylamino]ethyl}-3-[2-(3-hydroxyphenyl)ethoxy]propanamide dihydrobromide], the IC50 in assay [3] was 251 nM; in assay [1], 1260 nM. The EC50 in assay [2] was 6.31 nM. Further, the “β2 Int Act” value in assay [2] came to 0.8.

Regarding `CCN(CC)CCN(CCNCCc1ccc(O)c2[nH]c(=O)sc12)C(=O)CCOCCc1ccccc1Cl` [Example 31, 3-[2-(2-Chlorophenyl)ethoxy]-N-(2-diethylaminoethyl)-N-{2-[2-(4-hydroxy-2-oxo-2,3-dihydro-1,3-benzothiazol-7-yl)ethylamino]ethyl}propanamide ditrifluoroacetate], in assay [3], the IC50 was 5010 nM. For the same molecule, in assay [1], the IC50 was 251 nM. Moreover, in assay [2], the EC50 is 20 nM and the “β2 Int Act” value is on record as 0.9.

Turning to `CCN(CC)CCN(CCNCCc1ccc(O)c2[nH]c(=O)sc12)C(=O)CCOCCc1ccc2ccccc2c1` [Example 32, N-[2-(Diethylamino)ethyl]-N-(2-{[2-(4-hydroxy-2-oxo-2,3-dihydro-1,3-benzothiazol-7-yl)ethyl]amino}ethyl)-3-[2-(2-naphthyl)ethoxy]propanamide], the IC50 in assay [3] was 794 nM. Also, the IC50 in assay [1] is 631 nM. Moreover, in assay [2], the EC50 was 10 nM and the “β2 Int Act” value is listed as 0.5.
